Measured values: PubChem BioAssay (NCI)
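1) Cells in 96-well plates. 2) Compound, 48 h, 5 concentrations. 3) Linear interpolation between surrounding doses. 4) Unreached endpoint = highest concentration. TGI is the concentration that stops growth completely.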

Key:
Test in all cases: inhibition of tumour cell growth, NCI panel, 48 h
M14 melanoma = tested on: M14 melanoma
SN12C renal = tested on: SN12C renal
EKVX NSCLC = tested on: EKVX NSCLC
CCRF-CEM leukemia = tested on: CCRF-CEM leukemia
COLO 205 colon = tested on: COLO 205 colon
NCI-H226 lung = tested on: NCI-H226 lung
NCI-H23 lung = tested on: NCI-H23 lung
SF-539 CNS = tested on: SF-539 CNS
HCT-15 colon = tested on: HCT-15 colon
A549 NSCLC = tested on: A549 NSCLC
ACHN renal = tested on: ACHN renal
UACC-257 melanoma = tested on: UACC-257 melanoma
HT29 colon = tested on: HT29 colon
786-0 renal = tested on: 786-0 renal
DMS 114 small cell lung = tested on: DMS 114 small cell lung
RPMI-8226 leukemia = tested on: RPMI-8226 leukemia
OVCAR-3 ovarian = tested on: OVCAR-3 ovarian
HL-60(TB) leukemia = tested on: HL-60(TB) leukemia
SNB-19 CNS = tested on: SNB-19 CNS
IGROV1 ovarian = tested on: IGROV1 ovarian
NCI-H460 lung = tested on: NCI-H460 lung
UO-31 renal = tested on: UO-31 renal
HOP-62 NSCLC = tested on: HOP-62 NSCLC
LXFL 529 NSCLC = tested on: LXFL 529 NSCLC
M19-MEL melanoma = tested on: M19-MEL melanoma
K-562 leukemia = tested on: K-562 leukemia
SF-268 CNS = tested on: SF-268 CNS
RXF 393 renal = tested on: RXF 393 renal
HCC-2998 colon = tested on: HCC-2998 colon
SK-OV-3 ovarian = tested on: SK-OV-3 ovarian
MALME-3M melanoma = tested on: MALME-3M melanoma
SK-MEL-5 melanoma = tested on: SK-MEL-5 melanoma
OVCAR-8 ovarian = tested on: OVCAR-8 ovarian
DMS 273 small cell lung = tested on: DMS 273 small cell lung
HCT-116 colon = tested on: HCT-116 colon
U251 CNS = tested on: U251 CNS
SW-620 colon = tested on: SW-620 colon
KM12 colon = tested on: KM12 colon
KM20L2 colon = tested on: KM20L2 colon
SF-295 CNS = tested on: SF-295 CNS
LOX IMVI melanoma = tested on: LOX IMVI melanoma
XF 498 CNS = tested on: XF 498 CNS
MOLT-4 leukemia = tested on: MOLT-4 leukemia
SR leukemia = tested on: SR leukemia
SK-MEL-28 melanoma = tested on: SK-MEL-28 melanoma
NCI-H522 lung = tested on: NCI-H522 lung
SNB-75 CNS = tested on: SNB-75 CNS
OVCAR-4 ovarian = tested on: OVCAR-4 ovarian
SNB-78 CNS = tested on: SNB-78 CNS
SK-MEL-2 melanoma = tested on: SK-MEL-2 melanoma
TK-10 renal = tested on: TK-10 renal
HOP-92 NSCLC = tested on: HOP-92 NSCLC
HOP-18 NSCLC = tested on: HOP-18 NSCLC
UACC-62 melanoma = tested on: UACC-62 melanoma
OVCAR-5 ovarian = tested on: OVCAR-5 ovarian

**Q.** Which results are given for O=C1NCCCC12CCCNC2=O?
**A.** TGI (M14 melanoma): > 100 µM; TGI (SN12C renal): > 100 µM; TGI (EKVX NSCLC): > 100 µM; TGI (CCRF-CEM leukemia): > 100 µM; TGI (COLO 205 colon): > 100 µM; TGI (NCI-H226 lung): > 100 µM; TGI (NCI-H23 lung): > 100 µM; TGI (SF-539 CNS): > 100 µM; TGI (HCT-15 colon): > 100 µM; TGI (A549 NSCLC): > 100 µM; TGI (ACHN renal): > 100 µM; TGI (UACC-257 melanoma): > 100 µM; TGI (HT29 colon): > 100 µM; TGI (786-0 renal): > 100 µM; TGI (DMS 114 small cell lung): > 100 µM; TGI (RPMI-8226 leukemia): > 100 µM; TGI (OVCAR-3 ovarian): > 100 µM; TGI (HL-60(TB) leukemia): > 100 µM; TGI (SNB-19 CNS): > 100 µM; TGI (IGROV1 ovarian): > 100 µM; TGI (NCI-H460 lung): > 100 µM; TGI (UO-31 renal): > 100 µM; TGI (HOP-62 NSCLC): > 100 µM; TGI (LXFL 529 NSCLC): > 100 µM; TGI (M19-MEL melanoma): > 100 µM; TGI (K-562 leukemia): > 100 µM; TGI (SF-268 CNS): > 100 µM; TGI (RXF 393 renal): > 100 µM; TGI (HCC-2998 colon): > 100 µM; TGI (SK-OV-3 ovarian): > 100 µM; TGI (MALME-3M melanoma): > 100 µM; TGI (SK-MEL-5 melanoma): > 100 µM; TGI (OVCAR-8 ovarian): > 100 µM; TGI (DMS 273 small cell lung): > 100 µM; TGI (HCT-116 colon): > 100 µM; TGI (U251 CNS): > 100 µM; TGI (SW-620 colon): > 100 µM; TGI (KM12 colon): > 100 µM; TGI (KM20L2 colon): > 100 µM; TGI (SF-295 CNS): > 100 µM; TGI (LOX IMVI melanoma): > 100 µM; TGI (XF 498 CNS): > 100 µM; TGI (MOLT-4 leukemia): > 100 µM; TGI (SR leukemia): > 100 µM; TGI (SK-MEL-28 melanoma): > 100 µM; TGI (NCI-H522 lung): > 100 µM

**Q.** Which results are given for COc1ccc(C2C(=O)C(Cl)N2Nc2nc(C)cc(=O)[nH]2)cc1OC (stereo not drawn)?
**A.** TGI (M14 melanoma): > 100 µM; TGI (SN12C renal): 94.2 µM; TGI (EKVX NSCLC): > 100 µM; TGI (CCRF-CEM leukemia): 55.1 µM; TGI (COLO 205 colon): > 100 µM; TGI (NCI-H23 lung): > 100 µM; TGI (SF-539 CNS): 85.5 µM; TGI (HCT-15 colon): > 100 µM; TGI (A549 NSCLC): > 100 µM; TGI (SNB-75 CNS): 52.7 µM; TGI (ACHN renal): > 100 µM; TGI (UACC-257 melanoma): > 100 µM; TGI (HT29 colon): > 100 µM; TGI (OVCAR-4 ovarian): > 100 µM; TGI (RPMI-8226 leukemia): 55.9 µM; TGI (OVCAR-3 ovarian): 84.8 µM; TGI (HL-60(TB) leukemia): 37.6 µM; TGI (SNB-19 CNS): > 100 µM; TGI (IGROV1 ovarian): 70.2 µM; TGI (NCI-H460 lung): > 100 µM; TGI (UO-31 renal): > 100 µM; TGI (HOP-62 NSCLC): > 100 µM; TGI (SNB-78 CNS): > 100 µM; TGI (SK-MEL-2 melanoma): > 100 µM; TGI (LXFL 529 NSCLC): > 100 µM; TGI (M19-MEL melanoma): > 100 µM; TGI (K-562 leukemia): > 100 µM; TGI (SF-268 CNS): > 100 µM; TGI (RXF 393 renal): > 100 µM; TGI (HCC-2998 colon): > 100 µM; TGI (TK-10 renal): > 100 µM; TGI (HOP-92 NSCLC): 81.7 µM; TGI (SK-MEL-5 melanoma): > 100 µM; TGI (OVCAR-8 ovarian): > 100 µM; TGI (DMS 273 small cell lung): 84.3 µM; TGI (HCT-116 colon): > 100 µM; TGI (U251 CNS): > 100 µM; TGI (SW-620 colon): > 100 µM; TGI (HOP-18 NSCLC): 53.7 µM; TGI (KM12 colon): > 100 µM; TGI (KM20L2 colon): > 100 µM; TGI (LOX IMVI melanoma): > 100 µM; TGI (UACC-62 melanoma): > 100 µM; TGI (MOLT-4 leukemia): > 100 µM; TGI (OVCAR-5 ovarian): > 100 µM; TGI (SR leukemia): > 100 µM; TGI (SK-MEL-28 melanoma): > 100 µM
